Reference: patent US20250042900A1 (priority 2022, published 2025)
Structures can show the parent of a compound that is named as a salt. Where two headings read alike, the source gives them in different places.

Legend:
[1] = biological target: Histamine Receptor H2 (HRH2) (Homo sapiens, UniProt P25021); assay: cAMP secondary messenger assay, antagonist format; assay type: cell-based; conditions: read-out: IC50 (μM) Antag./Blocker/Inhibitor
[2] = biological target: T1, 5-Hydroxytryptamine (Serotonin) Receptor 1B (5-HT1B) (Homo sapiens, UniProt P28222); assay: cAMP secondary messenger assay, antagonist format; assay type: cell-based; conditions: read-out: IC50 (μM) Antag./Blocker/Inhibitor
T1 construct: host or cells: cAMP Hunter cell line

[3] = biological target: T2, COX1 (Homo sapiens, UniProt P23219); assay: Enzymatic assay COX1; assay type: biochemical; conditions: inhibitor, read-out: IC50 (μM) Antag./Blocker/Inhibitor
T2 construct: purchased BPS Bioscience

[4] = biological target: Opioid Receptor Kappa 1 (OPRK1) (Homo sapiens, UniProt P41145); assay: cAMP secondary messenger assay, agonist format; assay type: cell-based; conditions: read-out: EC50 (μM) Agonist/Opener
[5] = biological target: T3, Adrenergic Receptor α2A (ADRA2A) (Homo sapiens, UniProt P08913); assay: cAMP secondary messenger assay, antagonist format; assay type: cell-based; conditions: read-out: IC50 (μM) Antag./Blocker/Inhibitor
T3 sequence (P08913 whole entry): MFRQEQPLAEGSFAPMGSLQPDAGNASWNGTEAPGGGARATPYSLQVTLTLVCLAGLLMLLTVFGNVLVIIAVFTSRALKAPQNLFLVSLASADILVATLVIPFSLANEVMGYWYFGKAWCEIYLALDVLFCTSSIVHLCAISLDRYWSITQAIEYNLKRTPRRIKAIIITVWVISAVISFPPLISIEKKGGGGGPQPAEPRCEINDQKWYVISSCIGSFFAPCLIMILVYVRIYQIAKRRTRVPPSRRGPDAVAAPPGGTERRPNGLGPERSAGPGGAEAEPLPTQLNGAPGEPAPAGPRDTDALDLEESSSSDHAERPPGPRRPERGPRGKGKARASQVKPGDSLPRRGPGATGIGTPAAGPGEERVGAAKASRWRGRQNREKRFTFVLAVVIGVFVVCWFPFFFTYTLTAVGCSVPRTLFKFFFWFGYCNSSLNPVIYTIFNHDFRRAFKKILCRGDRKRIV

[6] = biological target: T4, Muscarinic acetylcholine Receptor M1 (CHRM1) (Homo sapiens, UniProt P11229); assay: cell-based; conditions: Calcium Flux, antagonist, read-out: IC50 (μM) Antag./Blocker/Inhibitor
T4 sequence (P11229 whole entry): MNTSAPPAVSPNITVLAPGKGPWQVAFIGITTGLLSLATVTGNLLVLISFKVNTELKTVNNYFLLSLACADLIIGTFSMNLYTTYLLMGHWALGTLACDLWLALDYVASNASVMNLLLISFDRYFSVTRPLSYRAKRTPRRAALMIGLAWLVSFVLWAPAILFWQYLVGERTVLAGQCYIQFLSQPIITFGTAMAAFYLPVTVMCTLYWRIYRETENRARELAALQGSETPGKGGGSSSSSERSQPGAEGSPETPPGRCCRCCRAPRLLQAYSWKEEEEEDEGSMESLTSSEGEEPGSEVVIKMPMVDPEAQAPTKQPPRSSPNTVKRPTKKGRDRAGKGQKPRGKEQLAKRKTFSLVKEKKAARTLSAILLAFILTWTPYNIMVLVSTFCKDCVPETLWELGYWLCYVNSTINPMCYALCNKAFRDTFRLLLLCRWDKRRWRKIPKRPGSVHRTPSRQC

[7] = biological target: T5, Opioid Receptor Delta 1 (OPRD1) (Homo sapiens, UniProt P41143); assay: cAMP secondary messenger assay, agonist format; assay type: cell-based; conditions: read-out: EC50 (μM) Agonist/Opener
T5 sequence (P41143 whole entry): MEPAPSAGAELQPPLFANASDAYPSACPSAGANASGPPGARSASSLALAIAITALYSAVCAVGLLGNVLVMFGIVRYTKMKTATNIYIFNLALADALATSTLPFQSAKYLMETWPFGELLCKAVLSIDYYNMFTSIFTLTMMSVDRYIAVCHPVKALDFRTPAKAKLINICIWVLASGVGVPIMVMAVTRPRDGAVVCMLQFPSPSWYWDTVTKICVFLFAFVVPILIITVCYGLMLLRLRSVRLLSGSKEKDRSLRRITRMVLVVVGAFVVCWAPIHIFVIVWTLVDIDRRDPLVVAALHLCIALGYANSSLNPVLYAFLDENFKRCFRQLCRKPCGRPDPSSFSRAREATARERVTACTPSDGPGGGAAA

[8] = biological target: T6, Histamine Receptor H1 (HRH1) (Homo sapiens, UniProt P35367); assay: Calcium flux secondary messenger assay, agonist format; assay type: cell-based; conditions: read-out: EC50 (μM) Agonist/Opener
T6 sequence (P35367 whole entry): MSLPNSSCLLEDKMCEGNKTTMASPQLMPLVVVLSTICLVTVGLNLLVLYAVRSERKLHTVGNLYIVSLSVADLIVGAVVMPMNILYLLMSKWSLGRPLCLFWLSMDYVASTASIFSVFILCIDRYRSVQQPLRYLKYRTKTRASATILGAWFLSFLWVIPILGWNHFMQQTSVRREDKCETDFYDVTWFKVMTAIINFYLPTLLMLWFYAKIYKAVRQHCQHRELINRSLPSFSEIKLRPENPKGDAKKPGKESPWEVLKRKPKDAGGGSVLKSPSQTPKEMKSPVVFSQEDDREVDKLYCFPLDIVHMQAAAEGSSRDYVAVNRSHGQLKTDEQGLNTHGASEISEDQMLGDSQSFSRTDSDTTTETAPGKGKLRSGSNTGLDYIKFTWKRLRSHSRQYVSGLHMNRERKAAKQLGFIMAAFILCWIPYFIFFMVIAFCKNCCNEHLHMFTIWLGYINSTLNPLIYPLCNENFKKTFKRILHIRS

[9] = biological target: T7, PDE4D2 (Homo sapiens, UniProt Q08499); assay: Enzymatic assay PDE4D2; assay type: biochemical; conditions: inhibitor, read-out: IC50 (μM) Antag./Blocker/Inhibitor
T7 construct: purchased Signal Chem

[10] = biological target: Adenosine Receptor A2A (ADORA2A) (Homo sapiens, UniProt P29274); assay: Calcium flux secondary messenger assay, antagonist format; assay type: cell-based; conditions: read-out: IC50 (μM) Antag./Blocker/Inhibitor
[11] = biological target: Cannabinoid Receptor 2 (CNR2) (Homo sapiens, UniProt P34972); assay: cAMP secondary messenger assay, agonist format; assay type: cell-based; conditions: read-out: EC50 (μM) Agonist/Opener
[12] = biological target: Adrenergic Receptor β2 (ADRB2) (Homo sapiens, UniProt P07550); assay: cAMP secondary messenger assay, antagonist format; assay type: cell-based; conditions: read-out: IC50 (μM) Antag./Blocker/Inhibitor
[13] = biological target: T6, Histamine Receptor H1 (HRH1); assay: cell-based; conditions: Calcium Flux, antagonist, read-out: IC50 (μM) Antag./Blocker/Inhibitor
[14] = biological target: Endothelin Receptor Type A (EDNRA) (Homo sapiens, UniProt P25101); assay: Calcium flux secondary messenger assay, agonist format; assay type: cell-based; conditions: read-out: EC50 (μM) Agonist/Opener
Endothelin Receptor Type A (EDNRA), sequence (P25101 21-427): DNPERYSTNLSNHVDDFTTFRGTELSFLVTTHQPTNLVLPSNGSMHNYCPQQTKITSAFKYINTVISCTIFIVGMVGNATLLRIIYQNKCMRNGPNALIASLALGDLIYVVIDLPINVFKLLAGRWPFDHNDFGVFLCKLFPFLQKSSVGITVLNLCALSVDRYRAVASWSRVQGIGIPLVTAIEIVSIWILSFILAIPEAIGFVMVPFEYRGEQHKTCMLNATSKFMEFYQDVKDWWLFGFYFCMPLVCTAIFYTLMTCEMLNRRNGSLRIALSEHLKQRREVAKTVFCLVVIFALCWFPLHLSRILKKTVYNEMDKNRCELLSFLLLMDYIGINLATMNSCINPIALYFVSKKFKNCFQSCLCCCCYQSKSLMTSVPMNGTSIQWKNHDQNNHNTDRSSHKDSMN

[15] = biological target: Nicotinic acetylcholine Receptor α4 β2 (nAChR(a4/b2)) (Homo sapiens, UniProt P17787+P43681); assay: Ion channel assay, opener format; assay type: cell-based; conditions: read-out: EC50 (μM) Agonist/Opener
[16] = biological target: Muscarinic acetylcholine Receptor M2 (CHRM2) (Homo sapiens, UniProt P08172); assay: cAMP secondary messenger assay, agonist format; assay type: cell-based; conditions: read-out: EC50 (μM) Agonist/Opener
[17] = biological target: 5-Hydroxytryptamine (Serotonin) Receptor 2B (5-HT2B) (Homo sapiens, UniProt P41595); assay: Calcium flux secondary messenger assay, agonist format; assay type: cell-based; conditions: read-out: EC50 (μM) Agonist/Opener
5-Hydroxytryptamine (Serotonin) Receptor 2B (5-HT2B), sequence (P41595 whole entry): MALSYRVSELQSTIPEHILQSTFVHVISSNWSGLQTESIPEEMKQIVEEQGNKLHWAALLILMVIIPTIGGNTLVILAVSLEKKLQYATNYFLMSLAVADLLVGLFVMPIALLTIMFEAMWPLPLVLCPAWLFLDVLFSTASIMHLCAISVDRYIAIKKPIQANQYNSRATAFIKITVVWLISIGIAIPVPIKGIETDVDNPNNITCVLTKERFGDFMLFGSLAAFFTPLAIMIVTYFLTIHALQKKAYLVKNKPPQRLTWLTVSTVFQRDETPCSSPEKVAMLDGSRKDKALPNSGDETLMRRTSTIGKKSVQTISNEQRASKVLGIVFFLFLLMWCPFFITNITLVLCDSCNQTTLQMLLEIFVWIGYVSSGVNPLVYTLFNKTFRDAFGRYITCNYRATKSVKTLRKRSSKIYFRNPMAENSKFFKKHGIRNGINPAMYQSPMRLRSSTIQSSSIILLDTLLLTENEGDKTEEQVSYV

[18] = biological target: CAV1.2 (Voltage-gated L-type calcium channel) (Homo sapiens, UniProt Q13936); assay: Ion channel assay, blocker format; assay type: cell-based; conditions: read-out: IC50 (μM) Antag./Blocker/Inhibitor
[19] = biological target: Adrenergic Receptor β1 (ADRB1) (Homo sapiens, UniProt P08588); assay: cAMP secondary messenger assay, antagonist format; assay type: cell-based; conditions: read-out: IC50 (μM) Antag./Blocker/Inhibitor
Adrenergic Receptor β1 (ADRB1), sequence (P08588 whole entry): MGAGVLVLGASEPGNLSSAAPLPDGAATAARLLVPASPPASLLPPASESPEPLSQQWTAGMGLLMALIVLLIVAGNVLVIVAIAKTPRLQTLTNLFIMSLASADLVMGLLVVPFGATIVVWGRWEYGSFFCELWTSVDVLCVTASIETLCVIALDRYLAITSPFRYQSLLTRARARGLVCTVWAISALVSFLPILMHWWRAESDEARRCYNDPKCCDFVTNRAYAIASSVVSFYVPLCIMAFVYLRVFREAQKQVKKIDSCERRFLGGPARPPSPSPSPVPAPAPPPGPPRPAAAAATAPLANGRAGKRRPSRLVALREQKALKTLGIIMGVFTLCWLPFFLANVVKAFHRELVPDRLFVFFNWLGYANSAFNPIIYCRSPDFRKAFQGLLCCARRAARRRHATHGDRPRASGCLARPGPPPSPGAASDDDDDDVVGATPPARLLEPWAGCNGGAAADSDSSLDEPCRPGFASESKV

[20] = biological target: T8, AChE (Homo sapiens, UniProt P22303); assay: Enzymatic assay AChE; assay type: biochemical; conditions: inhibitor, read-out: IC50 (μM) Antag./Blocker/Inhibitor
T8 construct: purchased R&D Systems

[21] = system: Gamma-aminobutyric acid Receptor A (GABAA); assay: Ion channel assay, blocker format; assay type: cell-based; conditions: read-out: IC50 (μM) Antag./Blocker/Inhibitor
[22] = biological target: hERG (Homo sapiens, UniProt Q12809); assay: Ion channel assay, blocker format; assay type: cell-based; conditions: read-out: IC50 (μM) Antag./Blocker/Inhibitor
[23] = biological target: T9, MAOA (Homo sapiens, UniProt P21397); assay: Enzymatic assay MAOA; assay type: biochemical; conditions: inhibitor, read-out: IC50 (μM) Antag./Blocker/Inhibitor
T9 construct: purchased Sigma
T9 sequence (P21397 whole entry): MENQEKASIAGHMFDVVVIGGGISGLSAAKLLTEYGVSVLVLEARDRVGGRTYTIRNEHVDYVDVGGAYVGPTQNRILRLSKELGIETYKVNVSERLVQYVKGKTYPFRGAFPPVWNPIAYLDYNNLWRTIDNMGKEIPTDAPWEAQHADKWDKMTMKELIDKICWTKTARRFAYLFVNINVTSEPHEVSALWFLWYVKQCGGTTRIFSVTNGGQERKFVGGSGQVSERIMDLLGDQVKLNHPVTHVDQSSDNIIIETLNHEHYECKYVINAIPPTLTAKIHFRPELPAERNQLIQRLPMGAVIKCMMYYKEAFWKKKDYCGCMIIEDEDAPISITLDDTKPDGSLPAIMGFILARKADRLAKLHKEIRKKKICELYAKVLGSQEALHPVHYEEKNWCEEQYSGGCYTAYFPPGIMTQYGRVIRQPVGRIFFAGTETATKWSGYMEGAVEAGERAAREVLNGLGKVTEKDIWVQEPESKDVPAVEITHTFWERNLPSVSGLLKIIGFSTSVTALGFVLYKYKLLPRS

[24] = biological target: T10, Dopamine Receptor D2 (DRD2S) (Homo sapiens, UniProt P14416); assay: cAMP secondary messenger assay, antagonist format; assay type: cell-based; conditions: read-out: IC50 (μM) Antag./Blocker/Inhibitor
T10 sequence (P14416 1-414 isoform P14416-2): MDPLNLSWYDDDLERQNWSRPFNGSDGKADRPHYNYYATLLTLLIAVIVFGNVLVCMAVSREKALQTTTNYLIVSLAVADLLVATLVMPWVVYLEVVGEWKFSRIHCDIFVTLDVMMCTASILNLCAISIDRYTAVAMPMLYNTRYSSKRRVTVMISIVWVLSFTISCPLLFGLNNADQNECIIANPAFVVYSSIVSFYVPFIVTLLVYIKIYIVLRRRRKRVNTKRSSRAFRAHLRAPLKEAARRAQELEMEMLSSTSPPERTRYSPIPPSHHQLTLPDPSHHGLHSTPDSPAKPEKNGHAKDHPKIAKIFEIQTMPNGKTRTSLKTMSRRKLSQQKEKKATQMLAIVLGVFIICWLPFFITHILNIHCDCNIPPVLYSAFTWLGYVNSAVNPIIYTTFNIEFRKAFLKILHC

[25] = biological target: T10, Dopamine Receptor D2 (DRD2S); assay: cAMP secondary messenger assay, agonist format; assay type: cell-based; conditions: read-out: EC50 (μM) Agonist/Opener
[26] = biological target: T11, Rho Associated Coiled-Coil Containing Protein Kinase 1 (ROCK1) (Homo sapiens, UniProt Q13464); assay: Kinase binding assay (KINOMEscan); conditions: inhibitor, read-out: IC50 (μM) Antag./Blocker/Inhibitor
T11 construct: T7 phage fusion (most assays) or DNA tag for qPCR (the remaining kinases); made in house; host or cells: E. coli (BL21-derived, T7 phage display) or HEK-293

[27] = biological target: T5, Opioid Receptor Delta 1 (OPRD1); assay: cAMP secondary messenger assay, antagonist format; assay type: cell-based; conditions: read-out: IC50 (μM) Antag./Blocker/Inhibitor
[28] = biological target: Cholecystokinin Receptor A (CCKAR) (Homo sapiens, UniProt P32238); assay: Calcium flux secondary messenger assay, antagonist format; assay type: cell-based; conditions: read-out: IC50 (μM) Antag./Blocker/Inhibitor
[29] = biological target: T4, Muscarinic acetylcholine Receptor M1 (CHRM1); assay: Calcium flux secondary messenger assay, agonist format; assay type: cell-based; conditions: read-out: EC50 (μM) Agonist/Opener
[30] = biological target: HTR2A (5-hydroxytryptamine (serotonin) receptor 2A) (Homo sapiens, UniProt P28223); assay: In vitro activity at 5-HT2AR, agonist mode (calcium flux secondary messenger assay); assay type: cell-based; conditions: for EC50: agonist
HTR2A (5-hydroxytryptamine (serotonin) receptor 2A), sequence (P28223 whole entry): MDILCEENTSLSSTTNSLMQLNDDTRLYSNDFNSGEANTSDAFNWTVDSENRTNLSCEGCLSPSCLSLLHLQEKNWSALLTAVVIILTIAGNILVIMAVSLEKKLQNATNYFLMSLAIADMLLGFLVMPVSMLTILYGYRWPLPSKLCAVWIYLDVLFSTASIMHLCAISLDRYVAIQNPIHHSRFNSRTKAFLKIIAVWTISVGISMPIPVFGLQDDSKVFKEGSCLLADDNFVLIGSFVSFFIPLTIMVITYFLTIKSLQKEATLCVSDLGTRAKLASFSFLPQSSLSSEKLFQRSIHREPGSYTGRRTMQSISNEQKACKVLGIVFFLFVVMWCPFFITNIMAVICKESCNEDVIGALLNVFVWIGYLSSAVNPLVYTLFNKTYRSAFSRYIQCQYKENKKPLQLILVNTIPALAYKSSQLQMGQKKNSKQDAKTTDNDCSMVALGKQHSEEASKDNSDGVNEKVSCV

[31] = biological target: Opioid Receptor Mu (OPRM1) (Homo sapiens, UniProt P35372); assay: cell-based; conditions: cAMP, antagonist, read-out: IC50 (μM) Antag./Blocker/Inhibitor
[32] = biological target: T3, Adrenergic Receptor α2A (ADRA2A); assay: cAMP secondary messenger assay, agonist format; assay type: cell-based; conditions: read-out: EC50 (μM) Agonist/Opener

Histamine Receptor H2 (HRH2), sequence (P25021 whole entry): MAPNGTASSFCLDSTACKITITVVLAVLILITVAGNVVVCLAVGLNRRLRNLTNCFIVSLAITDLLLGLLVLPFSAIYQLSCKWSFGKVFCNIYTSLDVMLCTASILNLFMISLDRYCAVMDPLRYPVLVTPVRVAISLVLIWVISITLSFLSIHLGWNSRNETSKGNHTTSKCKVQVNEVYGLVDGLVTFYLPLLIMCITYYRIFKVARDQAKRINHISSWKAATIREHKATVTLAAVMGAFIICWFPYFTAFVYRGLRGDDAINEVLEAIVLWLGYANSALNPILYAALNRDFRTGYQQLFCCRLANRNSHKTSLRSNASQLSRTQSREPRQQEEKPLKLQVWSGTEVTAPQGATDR

## CN(C)CCc1ccn2ccccc12 [28-12 oxalate, 2-(indolizin-1-yl)-N, N-dimethylethan-1-amine oxalate]
[1]
  IC50: > 30 µM
[2]
  IC50: > 30 µM
[3]
  IC50: 5.13 µM
[4]
  EC50: > 30 µM
[5]
  IC50: > 30 µM
[6]
  IC50: > 30 µM
[7]
  EC50: > 30 µM
[8]
  EC50: > 30 µM
[9]
  IC50: > 30 µM
[10]
  IC50: > 30 µM
[11]
  EC50: > 30 µM
[12]
  IC50: 10.2 µM
[13]
  IC50: 9.27 µM
[14]
  EC50: > 30 µM
[15]
  EC50: > 30 µM
[16]
  EC50: > 30 µM
[17]
  EC50: > 30 µM
[18]
  IC50: > 30 µM
[19]
  IC50: > 30 µM
[20]
  IC50: > 30 µM
[21]
  IC50: > 30 µM
[22]
  IC50: > 30 µM
[23]
  IC50: 7.25 µM
[24]
  IC50: 22.3 µM
[25]
  EC50: > 30 µM
[26]
  IC50: > 30 µM
[27]
  IC50: > 30 µM
[28]
  IC50: > 30 µM
[29]
  EC50: > 30 µM
[30]
  agonist effects at 5-HT2AR (in words): partial agonist effects
[30]; 5-HT2A, Calcium Flux, read-out: EC50 (μM) Agonist/Opener
  EC50: 0.052 µM
[30]; ten concentrations up to 30 μM, estimated, read-out: EC50 at 5-HT2AR
  EC50: ~0.0522 µM
[30]; of the response produced by 5-HT, read-out: maximum effect at 5-HT2AR
  Emax: ~30%
[31]
  IC50: > 30 µM
[32]
  EC50: > 30 µM
